According to patent publication US20060079453A1, “Hla binding peptides and their uses” (priority 2002, published 2006):
Several values for one entry are separate records, joined by “and”; a condition that tells them apart may be missing. Identical values can stand only once. Like-named read-outs stand apart in the source and are kept apart here. No end group written: not given here.

Legend:
[1] = biological target: HLA-A*0101 (Homo sapiens, UniProt P04439, A114D/A174V/A182V/D101N/D185E/E176A/E190D/L180R/Q94H/R68K/S129P/T187R/V100A/V91M/W191G); experiment: biochemical; type: binding
[2] = biological target: HLA-A*2902 (Homo sapiens, UniProt P04439, A270S/D101N/D185E/E176V/E277Q/E87Q/F33T/G231S/H175R/I121M/I218V/I322F/K168Q/L300P/L318F/M331R/P208A/P217A/Q86L/T323A/T345S/V100A/V358M); experiment: MHC molecular binding / Capture assay, IC50: A*2902
[3] = biological target: HLA-A*3002 (Homo sapiens, UniProt P04439, D101N/D140H/D185E/E176R/F33S/G80R/H175R/K168Q/Q94H/R138E/R41S/V100E); experiment: biochemical; type: binding
[4] = biological target: HLA-B*1801 (Homo sapiens, UniProt P01889, A329T/A93T/A95T/C349S/D201E/D54G/D98Y/E176V/E187T/E204Q/E69T/K202T/Q94N/R155S/R180L/S121R/V306I/Y140S/Y195H/Y33H/Y91S); experiment: biochemical; type: binding
[5] = biological target: HLA-B*4001 (Homo sapiens, UniProt P01889, A65T/A93T/A95T/D138N/D98Y/E176V/E69K/N87E/Q56L/Q94N/R180L/S121R/S35A/S48T/T167S/V36M/W171L/Y33H/Y91S); experiment: biochemical; type: binding
[6] = biological target: HLA-B*4002 (Homo sapiens, UniProt P01889, A65T/A93T/A95T/D138N/D201E/D98Y/E176V/E204Q/E69K/K202T/N87E/Q56L/Q94N/R180L/S48T/Y33H/Y91S); experiment: biochemical; type: binding
[7] = biological target: HLA-B*4402 (Homo sapiens, UniProt P01889, A223V/A65T/A93T/A95T/D201E/D98Y/E176V/E187L/E204Q/E69K/G107R/H137Y/K202T/L105A/L119I/N104T/N87E/Q56L/Q94N/R106L/R155S/R180D/S101N/S121R/S35A/S48T/T118I/V36M/W191S/Y140D/Y91S); experiment: biochemical; type: binding
[8] = biological target: HLA-B*4403 (Homo sapiens, UniProt P01889, A223V/A65T/A93T/A95T/D201E/D98Y/E176V/E187L/E204Q/E69K/G107R/H137Y/K202T/L105A/L119I/N104T/N87E/Q56L/Q94N/R106L/R155S/R180L/S101N/S121R/S35A/S48T/T118I/V36M/W191S/Y140D/Y91S); experiment: biochemical; type: binding
[9] = biological target: HLA-B*4501 (Homo sapiens, UniProt P01889, A329T/A65T/A93T/A95T/C349S/D138N/D201E/D98Y/E176V/E187L/E204Q/E69K/H137Y/K202T/L119W/N87E/Q56L/Q94N/R155S/R180D/S121R/S35A/S48T/V127L/V306I/V36M/W191S/Y140L/Y33H/Y91S); experiment: biochemical; type: binding
[10] = Binding affinity to A*0101 (expressed as an IC50)
[11] = Binding affinity to A*2902 (expressed as an IC50)
[12] = Binding affinity to A*3002 (expressed as an IC50)
[13] = read-out: Binding affinity to A*0101 (expressed as an IC50)

## LTEYVLDLY
[1]; [10]
  IC50: 6 nM and 8 nM
[2]
  IC50: 941 nM
[3]
  IC50: 81 nM

## LIENELMNY
[1]; [10]
  IC50: 412 nM
[2]; [11]
  IC50: 3940 nM

## FTSKVRKYRY
[1]; [10]
  IC50: 64 nM and 37 nM
[2]
  IC50: 6680 nM
[3]
  IC50: 52 nM

## KTYGPGPGLY
[1]; [10]
  IC50: 5.7 nM
[3]; [12]
  IC50: 0.96 nM

## CC(C)C[C@H](NC(=O)[C@H](CC(=O)O)NC(=O)[C@H](CC(C)C)NC(=O)[C@@H](NC(=O)[C@H](Cc1ccc(O)cc1)NC(=O)[C@H](CCC(=O)O)NC(=O)[C@H](CCCCN)NC(=O)[C@H](CC(C)C)NC(=O)[C@@H](NC(=O)[C@@H]1CCCN1)[C@@H](C)O)C(C)C)C(=O)N[C@@H](Cc1ccc(O)cc1)C(=O)O
[1]; [10]
  IC50: 426 nM
[2]; [11]
  IC50: 805 nM

## ISEYRHYQY
[1]; [10]
  IC50: 40 nM

## ATELHPEYY
[1]; [10]
  IC50: 43 nM
[3]
  IC50: 1730 nM

## SYQHFRIKLLL
[1]; [13]
  IC50: > 83300 nM

## AENLWVTVE
[4]
  IC50: > 258000 nM
[5]
  IC50: 3890 nM
[6]
  IC50: 1360 nM
[7]
  IC50: 8910 nM
[8]
  IC50: 2570 nM
[9]
  IC50: 246 nM

## LDKGIKPY
[4]; B*1801
  IC50: > 100000 nM
[5]; B*4001
  IC50: 17900 nM
[6]; B*4002
  IC50: 468 nM
[7]; B*4402
  IC50: > 43200 nM
[8]; B*4403
  IC50: 19300 nM
[9]; B*4501
  IC50: 23600 nM

## LDPYARVAI
[4]
  IC50: > 24400 nM
[5]
  IC50: > 88900 nM
[6]
  IC50: 372 nM
[7]
  IC50: > 41600 nM
[8]
  IC50: > 39800 nM
[9]
  IC50: > 49000 nM

## NVDQQNIDMY
[1]; [13]
  IC50: 47 nM

## AENLWVTVP
[4]
  IC50: 38400 nM
[5]
  IC50: 9710 nM
[6]
  IC50: 339 nM
[7]
  IC50: 7720 nM
[8]
  IC50: 2470 nM
[9]
  IC50: 187 nM

## WVYHTQGYY
[1]; [10]
  IC50: 703 nM
[3]
  IC50: 5.6 nM

## AENLWVTTY
[4]
  IC50: 28 nM
[5]
  IC50: 280 nM
[6]
  IC50: 191 nM
[7]
  IC50: 37 nM
[8]
  IC50: 26 nM
[9]
  IC50: 48 nM

## DENLWVTVY
[4]
  IC50: 26 nM
[5]
  IC50: > 72700 nM
[6]
  IC50: 41100 nM
[7]
  IC50: 4590 nM
[8]
  IC50: 988 nM
[9]; read-out: B*4501
  IC50: 49000 nM

## ATDNYYIVTY
[1]; [10]
  IC50: 7.4 nM and 19 nM
[3]
  IC50: 65 nM

## HTDTPTLHEY
[1]; [10]
  IC50: 20 nM and 30 nM
[3]
  IC50: 54 nM

## RTETPTLQDY
[1]; [10]
  IC50: 11 nM and 40 nM
[2]
  IC50: 1990 nM

## ETRHYCYSLY
[1]; [10]
  IC50: 43 nM
[3]
  IC50: 10 nM

## AENLNVTVY
[4]
  IC50: 198 nM
[5]
  IC50: 564 nM
[6]
  IC50: 3540 nM
[7]
  IC50: 447 nM
[8]
  IC50: 358 nM
[9]
  IC50: 2440 nM

## NLALLYGEY
[1]; [10]
  IC50: 275 nM
[3]; [12]
  IC50: 102 nM

## FENLWVTVY
[4]
  IC50: 59 nM
[5]
  IC50: 943 nM
[6]
  IC50: 1340 nM
[7]
  IC50: 4180 nM
[8]
  IC50: 1310 nM
[9]
  IC50: 21400 nM

## DLWYYHTQGYY
[1]; [13]
  IC50: 5880 nM

## AEIPKLAYF
[4]; B*1801
  IC50: 1640 nM
[5]; B*4001
  IC50: 57 nM
[6]; B*4002
  IC50: 5.6 nM
[7]; B*4402
  IC50: 229 nM
[8]; B*4403
  IC50: 57 nM
[9]; B*4501
  IC50: 608 nM

## LSLGPGPGFY
[1]; [10]
  IC50: 21 nM
[3]; [12]
  IC50: 8.2 nM

## AADAAAAKY
[1]; [10]
  IC50: 20 nM

## YSDISEYRHY
[1]; [10]
  IC50: 3.8 nM
[2]
  IC50: 1350 nM

## ISDYRHYNY
[1]; [10]
  IC50: 16 nM and 28 nM
[2]
  IC50: 45 nM

## KTGPGPGHLY
[1]; [10]
  IC50: 29 nM
[3]; [12]
  IC50: 1.3 nM

## LEASISGKY
[1]; [10]
  IC50: 57800 nM
[3]
  IC50: 87 nM

## ITKILYQSNPY
[1]; [10]
  IC50: > 10100 nM
[2]
  IC50: 64900 nM

## EEKPRTLHDL
[4]; B*1801
  IC50: > 81600 nM
[5]; B*4001
  IC50: 36200 nM
[6]; B*4002
  IC50: 34000 nM
[7]; B*4402
  IC50: 15200 nM
[8]; B*4403
  IC50: 30000 nM
[9]; B*4501
  IC50: 419 nM

## CC[C@H](C)[C@H](NC(=O)[C@H](CO)NC(=O)[C@H](Cc1c[nH]cn1)NC(=O)[C@@H](NC(=O)[C@H](CO)NC(=O)[C@@H](N)CC(C)C)C(C)C)C(=O)N[C@@H](CCC(N)=O)C(=O)N[C@@H](CC(N)=O)C(=O)N[C@@H](CC(=O)O)C(=O)N[C@@H](Cc1ccc(O)cc1)C(=O)O
[1]; [10]
  IC50: 279 nM

## TLEGPGPGGLY
[1]; [10]
  IC50: 11 nM
[3]; [12]
  IC50: 40 nM

## YSDVSEFRWY
[1]; [10]
  IC50: 3.9 nM
[2]
  IC50: 1840 nM

## ATSNYYIVTY
[1]; [10]
  IC50: 428 nM

## LSLDGPGPGY
[1]; [10]
  IC50: 266 nM
[2]; [11]
  IC50: 274 nM

## AENLWVTVM
[4]
  IC50: 508 nM
[5]
  IC50: 13 nM
[6]
  IC50: 6.1 nM
[7]
  IC50: 195 nM
[8]
  IC50: 35 nM
[9]
  IC50: 50 nM

## RERPDNYV
[4]; read-out: B*1801
  IC50: > 73800 nM
[5]; read-out: B*4001
  IC50: 71600 nM
[6]; read-out: B*4002
  IC50: 62 nM
[7]; read-out: B*4402
  IC50: > 67600 nM
[8]; read-out: B*4403
  IC50: > 34500 nM
[9]; read-out: B*4501
  IC50: 34600 nM

## PENLWVTVY
[4]
  IC50: 190 nM
[5]
  IC50: > 72700 nM
[6]
  IC50: > 155000 nM
[7]
  IC50: > 167000 nM
[8]
  IC50: > 425000 nM
[9]
  IC50: > 49000 nM

## LSGPGPGAIFY
[1]; [13]
  IC50: 25 nM

## C[C@H](NC(=O)[C@H](Cc1c[nH]c2ccccc12)NC(=O)[C@H](Cc1ccc(O)cc1)NC(=O)[C@H](CC(=O)O)NC(=O)[C@H](Cc1ccc(O)cc1)NC(=O)[C@@H](NC(=O)CN)[C@@H](C)O)C(=O)NCC(=O)N[C@@H](Cc1ccc(O)cc1)C(=O)O
[1]; [10]
  IC50: 141 nM

## ITEYRHYQY
[1]; [10]
  IC50: 90 nM

## AENKWVTVY
[4]
  IC50: 781 nM
[5]
  IC50: 11300 nM
[6]
  IC50: 534 nM
[7]
  IC50: 294 nM
[8]
  IC50: 540 nM
[9]
  IC50: 297 nM

## CC(C)C[C@H](NC(=O)[C@H](C)N)C(=O)N[C@@H](Cc1ccccc1)C(=O)N[C@@H](CCC(N)=O)C(=O)N[C@@H](CCC(=O)O)C(=O)N[C@@H](Cc1ccc(O)cc1)C(=O)N[C@@H](CCC(N)=O)C(=O)N[C@@H](CS)C(=O)N[C@@H](Cc1ccc(O)cc1)C(=O)O
[1]; [10]
  IC50: > 42000 nM

## CC[C@H](C)[C@H](NC(=O)[C@@H](NC(=O)[C@H](CC(C)C)NC(=O)[C@H](CC(=O)O)NC(=O)[C@@H](NC(=O)[C@@H](N)Cc1ccccc1)[C@@H](C)O)[C@@H](C)O)C(=O)N[C@H](C(=O)N[C@@H](Cc1ccc(O)cc1)C(=O)O)C(C)C
[1]; [10]
  IC50: 16 nM and 34 nM
[3]
  IC50: 39000 nM
